Assay results taken from ChEMBL document CHEMBL2331421, “Amino acid derived quinazolines as Rock/PKA inhibitors” (Bioorg Med Chem Lett, 2013).

How the values were obtained:
[1] = biological target: Serine/threonine-protein kinase MRCK alpha (Homo sapiens, UniProt Q5VT25); test: Inhibition of MRCKalpha (unknown origin)
[2] = biological target: Mitogen-activated protein kinase 14 (Homo sapiens, UniProt Q16539); test: Inhibition of p38alpha (unknown origin)
[3] = biological target: Mitogen-activated protein kinase 9 (Homo sapiens, UniProt P45984); test: Inhibition of JNK2 (unknown origin)
[4] = biological target: Mitogen-activated protein kinase 10 (Homo sapiens, UniProt P53779); test: Inhibition of JNK3 (unknown origin)
[5] = biological target: Mitogen-activated protein kinase 8 (Homo sapiens, UniProt P45983); test: Inhibition of JNK1 (unknown origin)
CYP3A4 = CYP3A4 (Homo sapiens, UniProt P08684); test: Inhibition of CYP3A4 (unknown origin) at 10 uM relative to control; assay type: ADME
CYP2C9 = CYP2C9 (Homo sapiens, UniProt P11712); test: Inhibition of CYP2C9 (unknown origin) at 10 uM relative to control; assay type: ADME
CYP2D6 = CYP2D6 (Homo sapiens, UniProt P10635); test: Inhibition of CYP2D6 (unknown origin) at 10 uM relative to control; assay type: ADME
CYP1A2 = biological target: T1, CYP1A2 (Homo sapiens, UniProt P05177); test: Inhibition of CYP1A2 (unknown origin) at 10 uM relative to control; assay type: ADME
T1 sequence (P05177 whole entry): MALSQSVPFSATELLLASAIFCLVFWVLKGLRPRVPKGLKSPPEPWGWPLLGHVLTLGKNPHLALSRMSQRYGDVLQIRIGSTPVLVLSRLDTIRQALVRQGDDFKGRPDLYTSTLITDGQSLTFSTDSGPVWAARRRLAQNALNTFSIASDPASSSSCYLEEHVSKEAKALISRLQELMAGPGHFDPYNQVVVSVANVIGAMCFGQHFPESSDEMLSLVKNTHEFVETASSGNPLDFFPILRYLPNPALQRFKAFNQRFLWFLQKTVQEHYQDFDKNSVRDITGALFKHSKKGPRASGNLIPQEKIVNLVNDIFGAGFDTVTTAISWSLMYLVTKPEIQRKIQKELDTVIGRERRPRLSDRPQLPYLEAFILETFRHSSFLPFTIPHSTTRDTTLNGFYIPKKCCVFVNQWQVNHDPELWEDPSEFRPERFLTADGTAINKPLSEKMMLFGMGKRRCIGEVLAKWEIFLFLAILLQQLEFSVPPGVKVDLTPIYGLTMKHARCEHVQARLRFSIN

[6] = Half life in human liver microsomes; assay type: ADME, Microsome
[7] = Inhibition of ROCK in rat A7r5 cells assessed as inhibition of myosin light chain bisphosphorylation by Western blot analysis; assay type: cell-based
[8] = biological target: Rho-associated protein kinase 1 (Homo sapiens, UniProt Q13464); test: Inhibition of ROCK1 (unknown origin)
[9] = Inhibition of PKA (unknown origin); design: species or system Homo sapiens
[10] = biological target: Rho-associated protein kinase 2 (Homo sapiens, UniProt O75116); test: Inhibition of human recombinant 6-His-tagged ROCK2 expressed in baculovirus-infected Sf9 cells using LCB-AKRRRLSSLRA-NH2 as substrate after 25 mins by TR-FRET assay
Chain of Rho-associated protein kinase 2 (O75116 whole entry): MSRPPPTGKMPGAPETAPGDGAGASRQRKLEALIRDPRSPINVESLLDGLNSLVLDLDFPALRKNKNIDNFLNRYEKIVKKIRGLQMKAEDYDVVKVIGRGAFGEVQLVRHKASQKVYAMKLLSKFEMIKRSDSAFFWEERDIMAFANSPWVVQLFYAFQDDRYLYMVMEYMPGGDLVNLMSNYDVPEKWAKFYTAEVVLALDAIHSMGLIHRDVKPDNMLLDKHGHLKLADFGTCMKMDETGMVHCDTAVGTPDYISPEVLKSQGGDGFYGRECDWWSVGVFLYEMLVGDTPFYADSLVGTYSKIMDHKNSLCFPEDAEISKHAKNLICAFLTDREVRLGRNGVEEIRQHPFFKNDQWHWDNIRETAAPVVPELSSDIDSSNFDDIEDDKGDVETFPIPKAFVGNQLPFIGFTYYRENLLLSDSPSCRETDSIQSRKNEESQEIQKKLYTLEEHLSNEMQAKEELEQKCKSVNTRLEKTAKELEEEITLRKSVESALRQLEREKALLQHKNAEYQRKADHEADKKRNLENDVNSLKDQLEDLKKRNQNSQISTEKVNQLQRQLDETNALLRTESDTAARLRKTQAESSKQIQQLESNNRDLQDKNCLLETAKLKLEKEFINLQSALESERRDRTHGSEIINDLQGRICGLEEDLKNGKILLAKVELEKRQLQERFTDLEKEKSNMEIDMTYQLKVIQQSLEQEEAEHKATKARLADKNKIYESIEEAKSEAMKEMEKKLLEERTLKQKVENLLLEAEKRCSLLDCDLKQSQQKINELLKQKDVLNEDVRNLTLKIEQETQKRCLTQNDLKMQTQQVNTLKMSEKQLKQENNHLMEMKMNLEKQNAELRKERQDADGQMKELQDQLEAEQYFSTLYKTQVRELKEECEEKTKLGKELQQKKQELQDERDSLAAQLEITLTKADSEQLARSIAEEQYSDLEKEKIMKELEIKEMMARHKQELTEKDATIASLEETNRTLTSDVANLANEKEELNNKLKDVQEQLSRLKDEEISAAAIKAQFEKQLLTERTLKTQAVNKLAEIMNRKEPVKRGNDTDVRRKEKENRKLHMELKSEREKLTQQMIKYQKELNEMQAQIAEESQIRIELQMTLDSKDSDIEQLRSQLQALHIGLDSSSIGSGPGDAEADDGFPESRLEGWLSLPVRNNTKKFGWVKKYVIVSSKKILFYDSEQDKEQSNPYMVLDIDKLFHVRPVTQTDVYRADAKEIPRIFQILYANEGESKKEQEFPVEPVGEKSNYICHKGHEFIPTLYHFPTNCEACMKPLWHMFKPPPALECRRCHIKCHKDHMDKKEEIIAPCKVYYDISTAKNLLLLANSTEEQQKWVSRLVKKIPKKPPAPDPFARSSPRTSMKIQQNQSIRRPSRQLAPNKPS

Chain of CYP2D6 (P10635 whole entry): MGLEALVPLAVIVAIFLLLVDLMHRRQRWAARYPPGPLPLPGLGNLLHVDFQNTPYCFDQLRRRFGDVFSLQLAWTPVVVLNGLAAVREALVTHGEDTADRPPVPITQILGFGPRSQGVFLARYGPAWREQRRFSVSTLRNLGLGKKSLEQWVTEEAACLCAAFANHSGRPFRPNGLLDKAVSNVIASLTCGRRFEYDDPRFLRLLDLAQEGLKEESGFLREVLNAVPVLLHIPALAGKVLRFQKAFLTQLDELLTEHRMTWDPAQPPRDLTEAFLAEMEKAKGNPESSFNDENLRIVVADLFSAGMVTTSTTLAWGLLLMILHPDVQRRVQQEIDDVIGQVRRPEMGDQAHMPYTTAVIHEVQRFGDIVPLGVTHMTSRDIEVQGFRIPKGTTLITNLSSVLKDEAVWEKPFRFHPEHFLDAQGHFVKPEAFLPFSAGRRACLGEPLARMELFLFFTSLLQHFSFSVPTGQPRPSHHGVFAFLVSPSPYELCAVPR
Chain of Serine/threonine-protein kinase MRCK alpha (Q5VT25 whole entry): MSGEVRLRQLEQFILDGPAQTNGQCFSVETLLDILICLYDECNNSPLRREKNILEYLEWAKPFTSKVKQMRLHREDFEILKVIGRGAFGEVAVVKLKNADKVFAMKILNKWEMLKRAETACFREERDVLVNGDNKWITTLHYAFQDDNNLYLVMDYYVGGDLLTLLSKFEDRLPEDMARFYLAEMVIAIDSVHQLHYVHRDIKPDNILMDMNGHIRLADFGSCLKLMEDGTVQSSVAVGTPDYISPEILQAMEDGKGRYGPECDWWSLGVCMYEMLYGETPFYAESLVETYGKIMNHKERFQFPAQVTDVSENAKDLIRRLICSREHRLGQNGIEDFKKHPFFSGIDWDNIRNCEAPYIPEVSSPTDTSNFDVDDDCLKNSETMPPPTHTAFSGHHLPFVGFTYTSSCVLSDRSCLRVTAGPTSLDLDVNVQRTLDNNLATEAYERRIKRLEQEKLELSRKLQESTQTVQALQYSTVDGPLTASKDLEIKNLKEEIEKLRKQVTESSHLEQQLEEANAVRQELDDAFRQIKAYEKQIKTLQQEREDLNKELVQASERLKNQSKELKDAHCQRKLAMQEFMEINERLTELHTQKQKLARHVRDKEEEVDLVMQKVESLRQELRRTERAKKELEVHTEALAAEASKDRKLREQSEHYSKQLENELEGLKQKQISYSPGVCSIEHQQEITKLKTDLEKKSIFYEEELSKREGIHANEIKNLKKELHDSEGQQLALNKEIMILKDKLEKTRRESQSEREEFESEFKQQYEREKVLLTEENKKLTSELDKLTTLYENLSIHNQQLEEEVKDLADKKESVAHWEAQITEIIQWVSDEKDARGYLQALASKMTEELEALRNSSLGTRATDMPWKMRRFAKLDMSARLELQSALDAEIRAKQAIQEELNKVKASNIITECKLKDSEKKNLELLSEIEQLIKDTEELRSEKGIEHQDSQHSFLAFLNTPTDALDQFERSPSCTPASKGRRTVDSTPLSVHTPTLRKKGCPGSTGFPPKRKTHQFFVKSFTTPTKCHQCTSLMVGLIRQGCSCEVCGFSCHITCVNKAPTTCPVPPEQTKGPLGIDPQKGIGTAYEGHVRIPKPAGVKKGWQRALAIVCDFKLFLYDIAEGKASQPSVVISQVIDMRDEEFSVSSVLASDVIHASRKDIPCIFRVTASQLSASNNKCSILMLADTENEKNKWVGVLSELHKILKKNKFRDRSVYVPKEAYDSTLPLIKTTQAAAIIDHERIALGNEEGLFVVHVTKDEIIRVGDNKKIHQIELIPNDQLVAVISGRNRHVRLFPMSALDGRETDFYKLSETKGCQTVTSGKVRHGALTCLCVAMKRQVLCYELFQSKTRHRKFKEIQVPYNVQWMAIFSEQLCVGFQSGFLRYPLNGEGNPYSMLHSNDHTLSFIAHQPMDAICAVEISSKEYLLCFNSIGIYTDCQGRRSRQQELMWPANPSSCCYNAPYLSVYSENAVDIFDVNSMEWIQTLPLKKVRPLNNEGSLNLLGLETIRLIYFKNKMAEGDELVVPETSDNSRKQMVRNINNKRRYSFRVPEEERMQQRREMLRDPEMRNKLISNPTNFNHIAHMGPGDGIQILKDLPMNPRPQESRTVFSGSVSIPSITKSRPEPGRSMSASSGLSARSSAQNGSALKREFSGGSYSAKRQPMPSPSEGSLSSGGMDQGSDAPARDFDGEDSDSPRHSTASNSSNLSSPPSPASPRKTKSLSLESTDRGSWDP
Chain of Rho-associated protein kinase 1 (Q13464 whole entry): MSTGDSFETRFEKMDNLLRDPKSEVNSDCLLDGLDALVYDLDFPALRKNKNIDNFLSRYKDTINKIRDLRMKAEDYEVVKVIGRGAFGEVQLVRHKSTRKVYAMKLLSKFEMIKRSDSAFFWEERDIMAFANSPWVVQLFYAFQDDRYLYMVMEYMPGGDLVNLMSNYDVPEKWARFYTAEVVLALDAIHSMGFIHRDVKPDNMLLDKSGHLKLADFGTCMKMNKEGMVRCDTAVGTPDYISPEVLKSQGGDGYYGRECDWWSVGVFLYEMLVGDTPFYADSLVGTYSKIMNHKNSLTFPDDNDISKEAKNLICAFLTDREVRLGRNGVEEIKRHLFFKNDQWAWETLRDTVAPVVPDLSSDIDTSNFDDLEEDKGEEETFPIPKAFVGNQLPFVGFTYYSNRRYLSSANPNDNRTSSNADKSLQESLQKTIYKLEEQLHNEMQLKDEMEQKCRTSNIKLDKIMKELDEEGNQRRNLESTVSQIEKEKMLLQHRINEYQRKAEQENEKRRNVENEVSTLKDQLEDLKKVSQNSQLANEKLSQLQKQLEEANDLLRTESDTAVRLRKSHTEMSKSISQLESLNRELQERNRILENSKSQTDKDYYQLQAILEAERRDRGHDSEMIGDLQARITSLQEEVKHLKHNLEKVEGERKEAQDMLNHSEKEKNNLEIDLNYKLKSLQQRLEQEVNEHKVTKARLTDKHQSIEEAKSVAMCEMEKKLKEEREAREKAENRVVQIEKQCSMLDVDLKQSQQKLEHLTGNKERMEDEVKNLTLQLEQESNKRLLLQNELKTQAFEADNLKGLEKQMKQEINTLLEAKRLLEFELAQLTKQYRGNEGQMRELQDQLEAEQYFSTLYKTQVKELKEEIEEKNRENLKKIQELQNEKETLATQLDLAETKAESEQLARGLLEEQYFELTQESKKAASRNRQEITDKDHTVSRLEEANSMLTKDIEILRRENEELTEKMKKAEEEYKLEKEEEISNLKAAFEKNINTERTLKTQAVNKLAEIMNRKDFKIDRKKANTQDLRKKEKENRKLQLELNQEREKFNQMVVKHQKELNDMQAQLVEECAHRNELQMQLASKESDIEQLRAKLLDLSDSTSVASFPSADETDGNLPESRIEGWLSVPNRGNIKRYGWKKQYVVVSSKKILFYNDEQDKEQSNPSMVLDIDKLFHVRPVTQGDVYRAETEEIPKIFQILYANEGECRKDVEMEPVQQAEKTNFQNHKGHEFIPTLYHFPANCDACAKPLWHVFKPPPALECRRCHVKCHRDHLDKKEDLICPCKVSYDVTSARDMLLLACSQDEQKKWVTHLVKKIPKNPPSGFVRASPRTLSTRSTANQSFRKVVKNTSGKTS

SMILES	IC50 [1] [nM]	IC50 [2] [nM]	IC50 [3] [nM]	IC50 [4] [nM]	IC50 [5] [nM]	inhibition at 10 µM (CYP3A4) [%]	inhibition at 10 µM (CYP2C9) [%]	inhibition at 10 µM (CYP2D6) [%]	inhibition at 10 µM (CYP1A2) [%]	half-life [6] [min]	IC50 [7] [nM]	IC50 [8] [nM]	IC50 [9] [nM]	IC50 [10] [nM]
CN(C)CC(=O)NC(c1ccc(Cl)cc1)c1nc2ccc(-c3cn[nH]c3)cc2c(=O)[nH]1 (stereo not given)	> 1000	> 1000	> 1000	> 1000	> 1000	23	83	55	10	15	500	< 1	7	< 1
N[C@@H](Cc1ccc(F)cc1)c1nc2ccc(-c3cn[nH]c3)cc2c(=O)[nH]1	> 1000	> 1000	> 1000	> 1000	> 1000	31	38	89	12	42	300	17	16	9
COc1cc(-c2cn[nH]c2)cc2c(=O)[nH]c([C@H](N)Cc3cccc(F)c3)nc12	> 1000	> 1000	> 1000	> 1000	> 1000	63	10	57	34	36	470	7	24	7
O=c1[nH]c([C@@H]2CNC[C@H]2c2ccccc2)nc2ccc(-c3cn[nH]c3)cc12	> 1000	> 1000	> 1000	> 1000	> 1000	19	5	72	19	35	312	2	4	1
COc1ccc([C@@H]2CN(C)C[C@H]2c2nc3ccc(-c4cn[nH]c4)cc3c(=O)[nH]2)cc1	> 1000	> 1000	> 1000	> 1000	> 1000	-3	55	66	0	21	30	13	26	5
